From ChEMBL document CHEMBL3217437, “The p53-MDM2/MDMX axis - A chemotype perspective” (Medchemcomm, 2011)
Blank lines part the entries; values can stand above or below the compound they belong to.

Tests used:
[1] = biological target: T1, Tumour suppressor p53/oncoprotein Mdm2 (Homo sapiens, UniProt P04637+Q00987); experiment: Inhibition of p53 interaction to MDM2 (unknown origin); format: protein assay
Target sequence in this assay (P04637 whole entry): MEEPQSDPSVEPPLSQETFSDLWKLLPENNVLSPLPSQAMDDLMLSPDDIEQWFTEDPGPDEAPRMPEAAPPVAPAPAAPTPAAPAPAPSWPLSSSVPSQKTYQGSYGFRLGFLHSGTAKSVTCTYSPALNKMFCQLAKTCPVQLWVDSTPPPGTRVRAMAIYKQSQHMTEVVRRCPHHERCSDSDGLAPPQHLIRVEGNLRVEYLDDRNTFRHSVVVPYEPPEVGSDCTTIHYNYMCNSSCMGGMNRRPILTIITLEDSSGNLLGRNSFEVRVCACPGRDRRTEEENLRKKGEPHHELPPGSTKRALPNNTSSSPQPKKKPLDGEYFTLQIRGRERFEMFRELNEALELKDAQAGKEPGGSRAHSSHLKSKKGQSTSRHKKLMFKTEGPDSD
Target sequence in this assay (Q00987 whole entry): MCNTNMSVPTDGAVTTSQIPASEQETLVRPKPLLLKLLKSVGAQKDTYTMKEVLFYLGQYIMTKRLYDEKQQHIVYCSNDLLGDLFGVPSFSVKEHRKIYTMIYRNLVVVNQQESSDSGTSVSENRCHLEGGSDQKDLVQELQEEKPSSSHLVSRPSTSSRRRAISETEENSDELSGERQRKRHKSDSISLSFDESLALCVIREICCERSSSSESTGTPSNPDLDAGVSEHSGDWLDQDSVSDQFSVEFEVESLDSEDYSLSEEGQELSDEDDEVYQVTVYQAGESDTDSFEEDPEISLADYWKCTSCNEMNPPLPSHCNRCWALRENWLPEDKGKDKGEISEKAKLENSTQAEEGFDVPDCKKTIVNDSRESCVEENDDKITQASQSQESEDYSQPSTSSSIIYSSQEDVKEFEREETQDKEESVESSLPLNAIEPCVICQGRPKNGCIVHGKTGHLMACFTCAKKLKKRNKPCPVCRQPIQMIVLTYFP

[2] = biological target: T1, Tumour suppressor p53/oncoprotein Mdm2; experiment: Inhibition of p53 interaction to MDM2 (unknown origin) by HTS assay; format: protein assay
Target sequence in this assay (P04637 whole entry): as the sequence (P04637 whole entry) above
Target sequence in this assay (Q00987 whole entry): as the sequence (Q00987 whole entry) above

[3] = biological target: T1, Tumour suppressor p53/oncoprotein Mdm2; experiment: Inhibition of p53 interaction to MDM2 (unknown origin) at 1.4 uM by HTRF assay; format: protein assay
Target sequence in this assay (P04637 whole entry, looked up): as the sequence (P04637 whole entry) above
Target sequence in this assay (Q00987 whole entry, looked up): as the sequence (Q00987 whole entry) above

[4] = test system: A2780; experiment: Antiproliferative activity against human A2780 cells; format: functional, cell-based
[5] = biological target: Tumour suppressor protein p53/Mdm4 (Homo sapiens, UniProt O15151); experiment: Inhibition of p53 interaction to MDMX (unknown origin) by fluorescence polarization assay; format: protein assay
Tumour suppressor protein p53/Mdm4, sequence (P04637 whole entry): as the sequence (P04637 whole entry) above
Tumour suppressor protein p53/Mdm4, sequence (O15151 whole entry): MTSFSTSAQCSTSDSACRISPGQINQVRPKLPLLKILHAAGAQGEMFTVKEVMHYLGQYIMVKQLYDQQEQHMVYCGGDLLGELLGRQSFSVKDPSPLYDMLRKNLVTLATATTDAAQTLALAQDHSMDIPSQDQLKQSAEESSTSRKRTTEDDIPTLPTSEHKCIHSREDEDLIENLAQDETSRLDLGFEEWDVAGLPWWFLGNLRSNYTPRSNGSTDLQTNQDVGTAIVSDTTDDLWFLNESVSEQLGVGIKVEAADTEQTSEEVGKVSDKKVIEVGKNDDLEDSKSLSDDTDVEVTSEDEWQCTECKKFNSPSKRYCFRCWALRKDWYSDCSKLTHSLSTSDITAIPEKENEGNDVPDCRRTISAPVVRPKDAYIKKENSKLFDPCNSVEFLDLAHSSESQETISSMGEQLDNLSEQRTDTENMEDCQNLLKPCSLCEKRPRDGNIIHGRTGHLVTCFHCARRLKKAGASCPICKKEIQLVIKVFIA

[6] = biological target: T1, Tumour suppressor p53/oncoprotein Mdm2; experiment: Inhibition of p53 interaction to GST-tagged MDM2 (unknown origin); format: protein assay
Target sequence in this assay (P04637 whole entry): as the sequence (P04637 whole entry) above
Target sequence in this assay (Q00987 whole entry): as the sequence (Q00987 whole entry) above

[7] = biological target: T1, Tumour suppressor p53/oncoprotein Mdm2; experiment: Inhibition of p53 interaction to MDM2 (unknown origin) by HTRF assay in presence of 0.02% bovine serum albumin; format: protein assay
Target sequence in this assay (P04637 whole entry): as the sequence (P04637 whole entry) above
Target sequence in this assay (Q00987 whole entry): as the sequence (Q00987 whole entry) above

[8] = biological target: T1, Tumour suppressor p53/oncoprotein Mdm2; experiment: Inhibition of p53 interaction to MDM2 (unknown origin) by fluorescence polarization assay; format: protein assay
Target sequence in this assay (P04637 whole entry): as the sequence (P04637 whole entry) above
Target sequence in this assay (Q00987 whole entry): as the sequence (Q00987 whole entry) above

[9] = biological target: T1, Tumour suppressor p53/oncoprotein Mdm2; experiment: Inhibition of His-tagged p53 interaction to GST-tagged MDM2 (unknown origin); format: protein assay
Target sequence in this assay (P04637 whole entry): as the sequence (P04637 whole entry) above
Target sequence in this assay (Q00987 whole entry): as the sequence (Q00987 whole entry) above

[10] = test system: NCI-H460; experiment: Antiproliferative activity against human NCI-H460 cells; format: functional, cell-based
[11] = Antiproliferative activity against human DLD1 cells; format: functional, cell-based; conditions: DLD-1

IC50 [1]: 460 nM
Compound: COC(=O)c1cccc(S(=O)(=O)N2c3ccc(C(=O)N4CCN(C)CC4)c(=O)n3[C@@H](c3ccc(Cl)cc3)[C@H]2c2ccc(Cl)cc2)c1

IC50 [1]: 31 nM
Compound: CC(C)(C)c1ncc(C2=N[C@@](C)(c3ccc(Cl)cc3)[C@@](C)(c3ccc(Cl)cc3)N2C(=O)N2CCN(CCOCCO)CC2)cn1

Ki [2]: 3000 nM
Compound: COC(=O)[C@]1(c2ccc(Cl)cc2)N=CN(CC2CC2)[C@H]1c1ccc(Cl)cc1

inhibition [3]: 94.4%
Compound: O=C1C[C@H](c2cccc(Cl)c2)[C@@]2(C(=O)Nc3cc(Cl)ccc32)[C@H](c2cccc(Cl)c2)C1

Ki [2]: 1000 nM
Compound: Clc1ccc2c(-c3c(-c4ccc5c(c4)OCO5)ncn3CC3CC3)c[nH]c2c1

IC50 [1]: 54 nM
Compound: Cc1ccc(F)cc1[C@@H]1NC(=O)C[C@H](c2ccccc2OC(C)(C)C(=O)N2CCC(F)(F)CC2)[C@@]12C(=O)Nc1cc(Cl)ccc12

IC50 [4]: 427 nM
Compound: OC1CCc2c(Nc3ccc4c(c3)OCCN4CCc3c[nH]c4ccccc34)ccnc21 (configuration not stated)

IC50 [1]: 70 nM
Compound: CCOC(=O)[C@@]1(c2ccc(Cl)cc2)N=C(c2ccc(OC)cc2OC(C)C)N(C(=O)N2CCN(C(C)=O)CC2)[C@@H]1c1ccc(Cl)cc1

Ki [5]: 55000 nM
Compound: CC(C)(C)C[C@H]1N[C@@H](C(=O)NCCN2CCOCC2)[C@H](c2cccc(Cl)c2F)[C@@]12C(=O)Nc1cc(Cl)ccc12

IC50 [6]: 34 nM
Compound: CC(=O)N1CCC(Oc2ccc(I)cc2[C@@H]2NC(=O)C[C@H](c3cccc(Cl)c3)[C@@]23C(=O)Nc2cc(Cl)ccc23)CC1

IC50 [1]: 2.8 nM
Compound: CC(C)C1=C(C(=O)N2C[C@H](F)C[C@H]2C(=O)N2CCNC3(CC3)C2)SC2=N[C@@](C)(c3ccc(Cl)nc3)[C@@H](c3ccc(Cl)c(F)c3)N21

IC50 [1]: 1400 nM
Compound: Cc1ccc(CN2C(=O)c3ccccc3C2(O[C@H]2C=C[C@@H](O)C2)c2ccc(Cl)cc2)cc1 (some centres not stated)

IC50 [7]: 309 nM
Compound: CC(C)(C)C[C@@H]1N[C@@H](C(=O)NCCCCO)[C@@H](c2cccc(Cl)c2)[C@@]1(C#N)c1ccc(Cl)cc1

IC50 [1]: 370 nM
Compound: Cc1cccc([C@H]2N(CC(=O)O)C(=O)C[C@@H](c3cccc(Cl)c3)[C@]23C(=O)Nc2cc(Cl)ccc23)c1 (racemic)

IC50 [1]: 100 nM
Compound: C=C(CC)[C@H]1N2CC(=O)N(CCCN(C)C)N=C2C[C@@H](c2cccc(Cl)c2)[C@]12C(=O)Nc1cc(Cl)ccc12

Ki [8]: 970 nM
Compound: CC(C)Cc1cc(CCC(=O)O)ccc1-c1ccc(-c2ccc(OCC(=O)O)c(Cc3ccccc3)c2)c(Cc2ccccc2)c1

IC50 [1]: 460 nM
Compound: COc1cccc(C2(Cc3cccc(Cl)c3)C(=O)Nc3cc(Cl)ccc32)c1 (configuration not stated)

IC50 [1]: 1000 nM
Compound: CCOC(=O)N1CCN(C(=O)[C@@]2(Sc3ccccc3)CC(=O)N(Cc3ccc(C#N)cc3)[C@@H]2c2c[nH]c3cc(Cl)ccc23)CC1

IC50 [1]: 280 nM
Compound: COc1cccc([C@]2(Cc3cccc(Cl)c3)C(=O)Nc3cc(Cl)ccc32)c1

IC50 [7]: 145 nM
Compound: Cc1ccc(F)cc1[C@@H]1NC(=O)C[C@H](c2cc(Cl)cnc2CC(C)(C)C(=O)O)[C@@]12C(=O)Nc1cc(Cl)ccc12

IC50 [7]: 66 nM
Compound: Cc1ccc(F)cc1[C@H]1NC(=O)C=C(c2cccc(Cl)c2)[C@]12C(=O)Nc1cc(Cl)ccc12

IC50 [7]: 165 nM
Compound: CC(C)(C)C[C@@H]1N[C@@H](C(=O)NCC[C@H](O)CO)[C@@H](c2cc(F)cc(Cl)c2)[C@@]1(C#N)c1ccc(Cl)cc1F

IC50 [4]: > 10000 nM
Compound: Fc1cc(Nc2ccncc2)cc(F)c1NCCc1c[nH]c2ccccc12

Compound: COc1cc(C(=O)N(C)[C@@H](Cc2c[nH]c3ccccc23)C(=O)N2CCN(c3ccc([N+](=O)[O-])cc3)CC2)c([N+](=O)[O-])cc1OC
IC50 [1]: 30 nM

IC50 [9]: 14 nM
IC50 [10]: 1380 nM
Compound: CC(C)C1=C(C(=O)N2CCC[C@H]2C(=O)N(C)C)SC2=N[C@@](C)(c3ccc(Cl)nc3)[C@@H](c3ccc(Cl)cc3)N21
IC50 [11]: 40700 nM
